Measured values: patent US5618713A, “Mutants of human antithrombin III” (Behringwerke Aktiengesellschaft, priority 1989, dated 1997)

Assays:
Assay type in all cases: biochemical
bovine thrombin = experiment: progressive inhibitory activity (Hensen et al. 1963), rate of thrombin inactivation, clotting time; conditions: purified protein, without heparin
Method: As taught in Hensen et al., progressive inhibiting activity is measured by an antithrombin III assay according to the principle that the material to be tested is incubated with thrombin. The rate of thrombin inactivation is measured and is used as a standard of antithrombin III activity.
In the procedure, a bovine thrombin solution of 50 N.I.H. units/ml, stored at-25° C., after being thawed is kept as melting ice; 0.2 ml of this thrombin solution with 0.6 ml veronal buffer, in a siliconized tube, is placed in a waterbath at 37° C. After a minimum of 2 minutes preheating, 0.2 ml of the material to tested (heat-defibrinated plasma or serum or a plasma fraction) is added to the mixture, and a chronometer is started. Exactly 1, 3 and 5 minutes later, 0.2 ml of this incubation mixture is added to 0.3 ml diluted bovine BaSO4 -plasma which has been pre-heated in the waterbath for 2-20 minutes and kept in non-siliconized tubes. The clotting times obtained are registered. The determination is made in duplicate.
If the antithrombin III activity in the sample tested is found to be low (less than 50% of the normal), then the determination should be repeated with the double quantity of the material to be tested (0.4 ml and 0.4 ml veronal buffer).
In the calculation, three times are obtained per determination. […]

thrombin = experiment: heparin cofactor activity (Schrader et al. 1986), Berichrom test kit, excess heparin and thrombin; conditions: purified protein, excess of heparin and thrombin
Method: As taught in Schrader et al., for the determination of the heparin cofactor activity of the AT III mutants with the test kit Berichrom® (Behringwerke AG, Marburg) a solution with the particular AT III mutant was incubated with an excess of heparin and thrombin. The produced AT III mutant-heparin-complex inhibits a part of the thrombin. The non-inactivated part of the thrombin cleaves the chromogenic substrate which was added to the solution and the amount of produced p-nitroaniline was measured at 405 nm photometrically.

alpha-thrombin (human) = experiment: dependence of thrombin inactivation on the heparin concentration
Method: The two mutants were examined for their relative ability to inactivate thrombin as a function of the heparin concentration in the assay and compared with AT III plasma, AT III-WT and the mutant AT III-Lys49 (Tab. 5).
The assay was carried out under the following conditions: 0.02 U (antigen)/ml AT III (AT III plasma, AT III-WT or AT III-Mut) was preincubated with 0.3 IU/ml alpha-thrombin (human), 2 KIU/ml aprotinin (Behringwerke) and heparin (Hoffmann-LaRoche) in concentrations of 0-25 IU/ml in a volume of I ml at 37° C. for 5minutes. After addition of 100 μl of substrate reagent (2 mM HD-CHA-But-Arg-pNA), the change in extinction at 405 nm (37° C.) was followed kinetically. The maximum inhibition of alpha-thrombin at heparin saturation was set equal to 100%.
Tab. 5 indicates the heparin concentration at half-maximum thrombin inhibition (c 1/2) for AT III plasma, AT III-WT and various AT III mutants.

[1] = target: elastase from human polymorphonuclear granulocytes (PMN elastase); experiment: PMN elastase inhibition assay (chromogenic substrate MeO-Suc-Ala-Ala-Pro-Val-pNA)
Method: The liberation of the paranitroaniline from the substrate was measured in a spectrophotometer as the increase in absorption at 405 nm within 15 min. This absorption was defined as 100% activity of the PMN elastase enzyme. The inhibitors were preincubated in concentrations increasing up to a maximum of 100 μg/ml with the enzyme for one hour. The enzyme reaction was then started with the substrate. The assay was carried out in 0.1 mol/1 HEPES, pH 7.5, +0.1 mol/1 sodium chloride. The substrate concentration was 0.13 mmol/1.

Row | Substance | PI, progressive inhibitory activity (bovine thrombin) | HC, heparin cofactor activity (thrombin) | C 1/2 Heparin, heparin concentration at half-maximum relative thrombin inhibition (alpha-thrombin (human); 0.02 U/ml AT III, 0.3 IU/ml alpha-thrombin, heparin 0-25 IU/ml, 5 min 37° C.) | inhibition of thrombin at low heparin concentrations (alpha-thrombin (human); compared in words) | IC50, inhibition of PMN elastase ([1]; 1 h preincubation with enzyme, substrate 0.13 mmol/l, 0.1 mol/l HEPES pH 7.5 + 0.1 mol/l NaCl, max. 100 μg/ml) | type of inhibition of PMN elastase ([1]; KI determination)
1 | ATIII-Gln135: AT III mutant with Asn→Gln exchange in position 135, lacking a carbohydrate side-chain | 3.9 U/mg | 4.5 U/mg | 22 mIU/ml | better than that of AT III plasma and AT III-WT |  | 
2 | alpha1 PI: reference inhibitor alpha1 protease inhibitor (alpha1 antitrypsin) |  |  |  |  | 3.7 µg/mL | non-competitive inhibition
